Laboratory results taken from patent US20240115658A1, “Use of an intervertebral disc fibrosis-inducing substance in preparation of medication” (Shanghai Ninth People's Hospital, Shanghai JiaoTong …, priority 2020, published 2024).

Columns and labels:
[1] = system: TGF-β/Smad pathway in annulus fibrosus cells; experiment: Immunoprotein western-blotting of annulus fibrosus cells (activation of the TGF-β/Smad pathway); format: cell-based
Procedure: Activation of the TGF-β/Smad pathway in annulus fibrosus cells by bleomycin:
Method for immunoprotein western-blotting of annulus fibrosus cells:
Annulus fibrosus cells (provided by CAS Cell Bank) were cultured in a six-well plate to which high-sugar DMEM medium+10% fetal bovine serum was added, the plate was placed in a 5% CO2 incubator at 37° C., and 5, 10 μg/ml of bleomycin and/or the TGFβR1 inhibitor LY364947 was added when the cell confluence was 70%-80% to co-culture for 30 min or 24 h. Total cellular protein was extracted from cultured annulus fibrosus cells (Medical Center of Rush University) by using RIPA lysis buffer (Roche, Basel, Switzerland) containing phosphatase and protease inhibitors. Equal amounts (20-30 μg) of extracted proteins were obtained by using 10% or 12.5% SDSPAGE gel, and proteins were separated by electroblotting with 0.22 μm PVDF membrane (Merck Millipore). The PVDF membrane was blocked with 5% BSA-PBS for 1 h at room temperature and then incubated with primary antibody (diluted at a ratio of 1:1000 in 5% BSA-PBS) overnight (at least 16 h) at 4° C. Anti-SMAD2 antibody (Ser308, D4364; rabbit monoclonal antibody), anti-phosphorylated SMAD2 antibody (Ser465/467, 138D4; rabbit monoclonal antibody), anti-SMAD3 antibody (C67H9; rabbit monoclonal antibody), anti-phosphorylated SMAD3 antibody (Ser423/425, C25A9; rabbit monoclonal antibody), anti-SMAD2/3 antibody (D7G7; rabbit monoclonal antibody), anti-phospho SMAD2/3 antibody (Ser465/467; Ser423/425; rabbit monoclonal antibody), anti-SMAD4 antibody (D3M6U; rabbit monoclonal antibody), and […] antibody (D6A8; rabbit monoclonal antibody) were purchased from Cell Signaling Technology (Danvers, Massachusetts, USA). […] The membrane was extensively rinsed in TBST again and protein immunobands were detected by using the LI-COR Odyssey Fluorescence Imaging System (LICOR Biosciences, Lincoln, NE, USA). […]

[2] = system: punctured intervertebral disc (spinal degeneration); experiment: Digital X-ray and MRI imaging of punctured rat tail discs after disc local injection of bleomycin; format: in vivo, Sprague-Dawley rats; settings: 5 μl of 10 and 5 μg/ml bleomycin per disc, injected two weeks after puncture, four weeks recovery
Procedure: Six 8-week-old male Sprague-Dawley rats (Shanghai Laboratory, Shanghai Animal Research Center, China) were raised at 26-28° C. and 50-65% humidity for 12 h day and night. […] Before surgery, the rats were anesthetized by intraperitoneal injection of sodium pentobarbital (5 mg/100 g of body weight). The tails of rats were disinfected with iodinated polyvinyl pyrrolidone, and then a longitudinal skin incision was made to the tail near the ventral part to expose 6-10 parts of the intervertebral disc of the tail bone. The Co6/7 disc was used as a sham control, and Co7/8, Co8/9, and Co9/10 were used as experimental groups. A sterile 20-gauge needle was used to perpendicularly puncture the intervertebral disc through the skin, so as to ensure the needle passed through the annulus fibrosus and stuck into the nucleus pulposus located at the center of the intervertebral disc. The incision was then sutured and the rats were allowed to recover for two weeks. The rats (n=6) were re-subjected to surgery to expose Co8/9 and Co9/10 discs, and 5 μl of 10 and 5 μg/ml bleomycin were injected into each disc. The surgical incision was then sutured and the rats were allowed to recover for four weeks. At the end of the experiment, all rats were executed, the tails were collected, the soft tissues were cleared, and the spines were fixed with 4% PFA. Co6/7 was the control group (sham group), Co7/8 was the Puncture group, and Co8/9 and Co9/10 were the puncture+bleomycin administration groups (Bleomycin group).
Digital X-ray imaging of the punctured disc samples (Puncture and Bleomycin groups) prepared in Embodiment 2 was performed in the anterior-posterior axis with a detector that provides up to 5× geometric magnification (Faxitron VersaVision; Faxitron Bioptics LLC, Tucson, AZ. USA). MRI imaging of the same punctured disc samples was performed on a Siemens MagnetomPrisma E11 (Siemens Healthineers, Erlangen, Germany) with the following parameters: TR 3000 ms, TE 80 ms, thickness 1.1 mm, interval 0.22 mm, field of view 160×65 mm, voxel size 0.25×0.1 mm.

[3] = system: punctured intervertebral disc (spinal degeneration); experiment: Safranin O-fast green staining, Sirius red staining and immunofluorescence of disc paraffin sections; format: in vivo, Sprague-Dawley rats
Procedure: Fixed disc tissue specimens (sham group, Puncture group, and Bleomycin group) were embedded in paraffin blocks, followed by tissue sectioning (with a thickness of 5 μm). For histological evaluation, paraffin sections were stained with saffron O-solid green and Sirius red according to standard laboratory protocols. For immunofluorescence detection, tissue sections were de-paraffined in graded xylene, rehydrated in graded alcohol solution, and then incubated in antigen retrieval buffer (Roche) at 37° C. for 30 min. After cooling to room temperature, the slides were immersed in PBS (pH 7.4) and washed 3 times for 5 min each. Autofluorescence quencher was added to the sections, and 5 min later, blocking buffer was added to block the sections for 30 min at room temperature. The sections were then incubated with primary antibodies overnight in a wet chamber at 4° C. Primary antibodies were diluted at a ratio of 1:100, and included anti-Col1a1, anti-FSP1, anti-TGFβ, and anti-TGFβR1 (all purchased from Cell Signaling Technology). The next day, sections were washed with PBS, conjugated to secondary antibody (anti-rabbit, 1:500; Cell Signaling Technology) through Alexa-fluor594, and then incubated for 50 min in the dark at room temperature. The sections were washed with PBS and then incubated with DAPI solution (Sigma Aldrich, St. Louis, MO, USA) for 10 minutes in the dark to stain the nucleus. The sections were subjected to a final PBS wash, air-dried, and then sealed with an anti-fluorescence quenching flake. Digital fluorescence images were taken by using a Leica DM4000 B epifluorescence microscope (Leica Microsystems).

[4] = system: punctured intervertebral disc (spinal degeneration); experiment: Atomic force analysis of punctured disc paraffin sections; format: in vivo, Sprague-Dawley rats; settings: Puncture+Bleomycin; FIG. 7 and 8
Procedure: Atomic force analysis was performed by first extracting and dissecting the punctured vertebrae. Paraffin sections were made and then nanoindented (R<10 nm, nominal N/m, tips: Si/Tipless/Top, cantilevered Si/Al/Top; Park Systems) by using a Park NX20 (Park Systems, Korea) equipped with a microsphere colloidal tip. For undulating surfaces with large areas, a scan rate of 13 hz was used. Large scanning rates can reduce drift, but are generally only used to scan small planes. Indentation was performed by using a scanning Asyst air probe, where a z-piezo displacement rate was 10 μm/s, a maximum load was ˜120 nn, a curvature radius was 5 nm, and a force constant was 0.4 N/m.

[5] = 10 and 5 μg/ml of bleomycin, compared with the puncture group and the control group, FIG. 4
[6] = Puncture+Bleomycin vs Puncture group, FIG. 3

Substance: bleomycin
- p-smad2 and p-smad3 in annulus fibrosus cells ([1]; 5, 10 μg/ml bleomycin, co-culture 30 min or 24 h, western blot, FIG. 1A and 1B): activated
- expression of end-protein products Col1a1 and FSP1 ([1]; 5, 10 μg/ml bleomycin, co-culture 30 min or 24 h, western blot, FIG. 1C): increased
- fibrogenic-associated proteins TGFβ, FSP1, and Col1a1 (immunoprotein western-blot) ([1]; legend of FIG. 1C): highly expressed
- signal of the intervertebral disc (MRI) [2]: difficult to be preserved
- stability of the disc (X-ray and MRI) [2]: not significantly affected
- intervertebral space height (X-ray and MRI) ([2]; vs Puncture group): effectively maintained
- staining percentage of annulus fibrous (green) [3, 5]: significantly increased
- staining percentage of type I collagen (yellow) [3, 5]: significantly increased
- staining percentage of type III collagen (green) [3, 5]: significantly increased
- type I and type III collagens secreted (immunofluorescence) ([3]; Puncture+, Bleomycin 10 or 5, FIGS. 5 and 6): a large amount of type I and type III collagens was secreted
- annulus fibrosus repair (staining) [3, 6]: completely repaired and migrated inward
- intervertebral space height (Safranin O-fast green and Sirius red staining) [3, 6]: significantly higher
- type I collagen secreted to fill the intervertebral space (staining) [3, 6]: large amounts of type I collagen were secreted
- fibrosis (atomic force analysis) [4]: faster fibrosis
- intervertebral space height (atomic force analysis) [4]: preservation of the intervertebral space height
- resistance of the disc to deformation (atomic force analysis) [4]: increase in the resistance of the disc to deformation
